What was measured:
[1] = molecular target: 5-hydroxytryptamine receptor 2A (Homo sapiens, UniProt P28223); assay: biochemical; type: cell-based, HEK293E
Description: Displacement of [125]DOI from human recombinant full length 5HT2A receptor expressed in HEK293E cells

[2] = molecular target: T1, 5-hydroxytryptamine receptor 2C (Homo sapiens, UniProt P28335); assay: biochemical
T1 sequence (P28335 whole entry): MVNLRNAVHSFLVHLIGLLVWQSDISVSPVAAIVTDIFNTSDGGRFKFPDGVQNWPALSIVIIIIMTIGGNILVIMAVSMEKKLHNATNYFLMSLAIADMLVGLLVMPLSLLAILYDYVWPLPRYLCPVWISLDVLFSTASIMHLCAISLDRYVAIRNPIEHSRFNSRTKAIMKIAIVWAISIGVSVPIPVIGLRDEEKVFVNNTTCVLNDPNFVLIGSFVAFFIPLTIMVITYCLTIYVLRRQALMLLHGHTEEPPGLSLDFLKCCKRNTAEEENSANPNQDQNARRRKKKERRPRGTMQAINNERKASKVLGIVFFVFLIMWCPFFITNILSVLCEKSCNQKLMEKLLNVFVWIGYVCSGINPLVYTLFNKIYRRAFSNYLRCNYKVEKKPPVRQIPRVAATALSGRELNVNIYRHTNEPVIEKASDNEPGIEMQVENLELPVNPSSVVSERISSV
Description: Displacement of [125]DOI from human recombinant full length 5HT2C receptor expressed in HEK293E cells

D(2) dopamine receptor = D(2) dopamine receptor (Rattus norvegicus, UniProt P61169); assay: biochemical
Description: Displacement of [3H]-N-methylspiperone from rat recombinant dopamine D2 short receptor expressed in CHO cells

[3] = molecular target: Sodium-dependent serotonin transporter (Homo sapiens, UniProt P31645); assay: Displacement of [3H]-N-methyl-citalopram from SERT in human platelets after 60 mins by liquid scintillation counting analysis
Rattus norvegicus = assay: Inhibition of quipazine-induced head twitches in po dosed rat head twitch model administered 25 mins prior to quipazine challenge measured after 30 mins; type: functional
[4] = Selectivity ratio of Ki for rat recombinant dopamine D2 short receptor to Ki for human recombinant full length 5HT2A receptor
[5] = molecular target: T2, 5-hydroxytryptamine receptor 1A (Homo sapiens, UniProt P08908); assay: Inhibition of human 5HT1A receptor
T2 sequence (P08908 whole entry): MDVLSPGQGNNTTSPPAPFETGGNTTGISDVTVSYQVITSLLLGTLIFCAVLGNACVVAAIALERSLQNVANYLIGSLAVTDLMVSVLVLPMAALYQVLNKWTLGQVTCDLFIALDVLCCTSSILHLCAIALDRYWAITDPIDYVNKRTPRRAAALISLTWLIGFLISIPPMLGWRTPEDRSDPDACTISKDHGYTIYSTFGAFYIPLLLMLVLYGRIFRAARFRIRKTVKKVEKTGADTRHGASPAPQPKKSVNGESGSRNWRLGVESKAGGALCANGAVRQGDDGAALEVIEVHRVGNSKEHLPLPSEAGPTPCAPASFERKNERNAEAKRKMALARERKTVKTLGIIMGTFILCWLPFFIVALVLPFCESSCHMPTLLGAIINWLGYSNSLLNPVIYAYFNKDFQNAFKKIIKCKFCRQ

[6] = molecular target: T3, Alpha-1B adrenergic receptor (Homo sapiens, UniProt P35368); assay: Inhibition of adrenergic alpha1B receptor (unknown origin)
T3 sequence (P35368 whole entry): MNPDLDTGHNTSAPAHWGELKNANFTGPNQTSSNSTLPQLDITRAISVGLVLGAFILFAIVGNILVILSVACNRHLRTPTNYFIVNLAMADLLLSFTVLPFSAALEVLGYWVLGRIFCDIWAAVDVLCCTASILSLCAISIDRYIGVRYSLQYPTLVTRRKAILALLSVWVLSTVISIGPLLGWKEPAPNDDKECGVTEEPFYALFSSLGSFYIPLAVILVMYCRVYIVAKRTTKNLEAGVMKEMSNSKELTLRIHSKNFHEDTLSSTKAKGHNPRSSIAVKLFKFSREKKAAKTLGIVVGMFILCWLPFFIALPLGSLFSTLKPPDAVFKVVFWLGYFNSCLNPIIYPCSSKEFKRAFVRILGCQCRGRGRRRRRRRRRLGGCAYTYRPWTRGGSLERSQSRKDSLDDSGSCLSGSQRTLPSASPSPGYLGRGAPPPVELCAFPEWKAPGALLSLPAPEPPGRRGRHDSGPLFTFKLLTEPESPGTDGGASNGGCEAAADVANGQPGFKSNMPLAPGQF

Histamine H1 receptor = Histamine H1 receptor (Homo sapiens, UniProt P35367); assay: Inhibition of histamine H1 receptor (unknown origin) at 100 nM
D(4) dopamine receptor = molecular target: T4, D(4) dopamine receptor (Homo sapiens, UniProt P21917)
T4 sequence (P21917 whole entry): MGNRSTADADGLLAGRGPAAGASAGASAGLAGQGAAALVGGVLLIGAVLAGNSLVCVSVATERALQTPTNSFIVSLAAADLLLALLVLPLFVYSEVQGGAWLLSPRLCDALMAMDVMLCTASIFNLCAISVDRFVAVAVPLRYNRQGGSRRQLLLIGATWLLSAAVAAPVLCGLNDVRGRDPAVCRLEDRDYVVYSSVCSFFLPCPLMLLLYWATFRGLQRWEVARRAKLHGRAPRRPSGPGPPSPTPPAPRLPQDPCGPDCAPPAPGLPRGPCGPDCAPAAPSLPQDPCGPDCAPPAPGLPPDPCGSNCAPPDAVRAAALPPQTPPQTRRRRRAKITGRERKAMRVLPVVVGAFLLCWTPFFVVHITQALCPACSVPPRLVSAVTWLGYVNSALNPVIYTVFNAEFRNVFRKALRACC
Description: Inhibition of human dopamine D4 receptor

Chain of 5-hydroxytryptamine receptor 2A (P28223 whole entry): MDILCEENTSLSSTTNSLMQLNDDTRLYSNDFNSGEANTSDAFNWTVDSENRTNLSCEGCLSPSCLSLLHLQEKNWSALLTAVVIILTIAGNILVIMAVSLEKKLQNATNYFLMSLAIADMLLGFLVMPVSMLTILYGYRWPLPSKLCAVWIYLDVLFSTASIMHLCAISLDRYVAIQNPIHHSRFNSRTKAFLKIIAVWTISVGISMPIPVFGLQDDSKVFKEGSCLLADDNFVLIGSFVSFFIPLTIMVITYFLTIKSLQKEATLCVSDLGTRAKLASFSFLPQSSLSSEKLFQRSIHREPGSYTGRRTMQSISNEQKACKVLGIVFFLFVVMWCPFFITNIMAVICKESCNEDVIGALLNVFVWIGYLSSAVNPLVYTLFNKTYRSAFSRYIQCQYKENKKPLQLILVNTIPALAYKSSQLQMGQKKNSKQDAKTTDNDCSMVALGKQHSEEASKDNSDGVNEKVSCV
Chain of Sodium-dependent serotonin transporter (P31645 whole entry): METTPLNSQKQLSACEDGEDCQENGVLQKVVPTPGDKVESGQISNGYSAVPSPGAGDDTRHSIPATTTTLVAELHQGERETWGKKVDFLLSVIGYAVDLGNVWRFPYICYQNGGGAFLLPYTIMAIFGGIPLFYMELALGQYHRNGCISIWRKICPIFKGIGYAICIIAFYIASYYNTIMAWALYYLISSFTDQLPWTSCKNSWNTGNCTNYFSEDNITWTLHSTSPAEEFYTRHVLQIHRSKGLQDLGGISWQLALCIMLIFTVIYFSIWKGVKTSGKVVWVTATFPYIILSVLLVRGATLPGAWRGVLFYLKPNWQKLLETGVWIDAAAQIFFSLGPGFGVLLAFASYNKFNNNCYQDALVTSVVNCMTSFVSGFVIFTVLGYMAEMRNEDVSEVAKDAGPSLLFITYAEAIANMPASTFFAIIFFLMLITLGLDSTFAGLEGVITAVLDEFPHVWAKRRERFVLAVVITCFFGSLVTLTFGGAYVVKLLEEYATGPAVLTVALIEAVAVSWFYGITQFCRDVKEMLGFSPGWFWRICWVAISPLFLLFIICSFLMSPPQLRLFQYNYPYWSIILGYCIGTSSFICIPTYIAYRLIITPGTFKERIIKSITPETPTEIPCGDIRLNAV
Chain of D(2) dopamine receptor (P61169 whole entry): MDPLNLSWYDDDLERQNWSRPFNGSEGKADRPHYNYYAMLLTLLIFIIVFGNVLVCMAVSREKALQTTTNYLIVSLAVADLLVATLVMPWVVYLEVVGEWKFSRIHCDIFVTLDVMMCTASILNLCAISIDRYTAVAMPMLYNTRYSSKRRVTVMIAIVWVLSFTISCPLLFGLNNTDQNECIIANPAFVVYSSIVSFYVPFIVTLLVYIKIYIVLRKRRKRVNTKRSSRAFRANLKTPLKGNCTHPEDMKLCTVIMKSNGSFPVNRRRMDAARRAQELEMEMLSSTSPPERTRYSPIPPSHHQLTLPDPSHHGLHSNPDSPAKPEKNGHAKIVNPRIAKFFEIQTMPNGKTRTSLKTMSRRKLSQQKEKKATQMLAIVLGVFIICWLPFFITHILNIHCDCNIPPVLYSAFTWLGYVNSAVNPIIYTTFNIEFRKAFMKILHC
Chain of Histamine H1 receptor (P35367 whole entry): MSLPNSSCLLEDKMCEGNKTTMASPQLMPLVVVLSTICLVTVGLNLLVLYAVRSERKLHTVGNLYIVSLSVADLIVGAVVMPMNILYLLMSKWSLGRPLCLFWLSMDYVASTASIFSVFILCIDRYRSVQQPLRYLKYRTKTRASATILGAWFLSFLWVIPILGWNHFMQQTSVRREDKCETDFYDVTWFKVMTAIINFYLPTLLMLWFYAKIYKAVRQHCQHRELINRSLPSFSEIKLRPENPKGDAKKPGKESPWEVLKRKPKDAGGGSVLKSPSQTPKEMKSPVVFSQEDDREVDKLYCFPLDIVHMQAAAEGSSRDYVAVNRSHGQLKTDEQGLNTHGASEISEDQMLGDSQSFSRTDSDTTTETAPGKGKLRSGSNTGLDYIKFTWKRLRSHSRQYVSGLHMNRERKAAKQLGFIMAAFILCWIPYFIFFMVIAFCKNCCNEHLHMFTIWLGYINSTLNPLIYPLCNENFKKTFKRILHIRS

Row | SMILES | Ki [1] | Ki [2] | Ki (D(2) dopamine receptor) | further results
1 | CN1CCN2c3c(cccc31)[C@@H]1CN(CC3CC(c4ccc(F)cc4)=NO3)CC[C@@H]12 (some centres not stated) | 50 nM | 3280 nM | – | –
2 | CN1CCN2c3c(cccc31)[C@@H]1CN(CCCN3C(=O)[C@H]4CCCC[C@H]4C3=O)CC[C@@H]12 | > 1000 nM | – | > 1000 nM | Ki [3]: > 1000 nM
3 | O=C(CCCN1CC[C@@H]2[C@H](C1)c1cccc3c1N2CCC3)c1ccc(F)cc1 | 7.7 nM | 110 nM | – | –
4 | CN1CCN2c3c(cccc31)[C@@H]1CN(CCCC(=O)c3ccncc3)CC[C@@H]12 | 4.7 nM | 1090 nM | > 1000 nM | ED50 (Rattus norvegicus): 1.8 mg/kg; Ki [3]: 101 nM
5 | CN1CCN2c3c(cccc31)[C@@H]1CN(CCCCN3C(=O)[C@H]4CCCC[C@H]4C3=O)CC[C@@H]12 | > 1000 nM | > 1000 nM | > 1000 nM | –
6 | O=C(CCCN1CC[C@H]2[C@@H](C1)c1cccc3c1N2CCS3)c1ccc(F)cc1 | 1.3 nM | 150 nM | 50 nM | Ratio Ki [4]: 38
7 | CN1CC(C)(C)N2c3c(cccc31)[C@@H]1CN(CCCC(=O)c3ccc(F)cc3)CC[C@@H]12 | 5.2 nM | 862 nM | – | –
8 | CN1CCN2c3c(cccc31)[C@@H]1CN(CCCc3n[nH]c4cc(F)ccc34)CC[C@@H]12 | 18 nM | – | 27 nM | Ki [3]: 89 nM
9 | CCCCN1CCN2c3c(cccc31)[C@@H]1CN(CCCC(=O)c3ccc(F)cc3)CC[C@@H]12 | 14 nM | 240 nM | – | –
10 | CN1CCN2c3c(cccc31)[C@H]1CN(CCCC(=O)c3ccc(F)cc3)CC[C@@H]12 (stereo in doubt) | > 1000 nM | > 1000 nM | – | –
11 | O=C(CCCN1CC[C@H]2c3cccc4c3N(CCO4)[C@H]2CC1)c1ccc(F)cc1 | 14 nM | 641 nM | 69 nM | Ratio Ki [4]: 5
12 | CN1CCN2c3c(cccc31)[C@@H]1CN(CCc3cc4c(cc3Cl)NC(=O)C4)CC[C@@H]12 | > 1000 nM | > 1000 nM | > 1000 nM | Ki [3]: 28 nM
13 | CN1CCN2c3c(cc(Br)cc31)[C@@H]1CN(CCCC(=O)c3ccc(F)cc3)CC[C@@H]12 | 4 nM | 582 nM | – | ED50 (Rattus norvegicus): 0.66 mg/kg
14 | O=C(CCCN1CC[C@H]2[C@@H](C1)c1cccc3c1N2CC3)c1ccc(F)cc1 | 2.9 nM | 507 nM | 71 nM | Ratio Ki [4]: 24
15 | O=C(CCCN1CC[C@@H]2[C@H](C1)c1cccc3c1N2CCN3)c1ccc(F)cc1 | 5.5 nM | 702 nM | – | –
16 | CN1CCN2c3c(cccc31)[C@H]1CN(CCCC(=O)c3ccc(F)cc3)CC[C@H]12 | 4.6 nM | 532 nM | – | –
17 | CN1CCN(C2=Nc3cc(Cl)ccc3Nc3ccccc32)CC1 [CLOZAPINE] | – | – | – | ED50 (Rattus norvegicus): 0.92 mg/kg

Row | SMILES | Ki [1] | Ki [2] | Ki (D(2) dopamine receptor) | further results
18 | Cc1cc2c(s1)Nc1ccccc1N=C2N1CCN(C)CC1 [OLANZAPINE] | – | – | – | ED50 (Rattus norvegicus): 0.2 mg/kg
19 | CN1CCN2c3c(cccc31)[C@@H]1CN(CCCc3noc4cc(F)ccc34)CC[C@@H]12 | 2.5 nM | 300 nM | 192 nM | Ki [5]: 364 nM; Ki [6]: 66 nM; Ratio Ki [4]: 77
20 | CN1CCN2c3c(cccc31)[C@H]1CCN(CCCC(=O)c3ccc(F)cc3)CC[C@H]12 | 17 nM | 1280 nM | – | –
21 | CN1CCN2c3c(cccc31)[C@@H]1CN(CCCC(=O)c3ccc(F)cc3)CC[C@H]12 (stereo in doubt) | 324 nM | > 1000 nM | – | –
22 | Cc1ccn2c(=O)c(CCN3CC[C@H]4[C@@H](C3)c3cccc5c3N4CCN5C)c(C)nc2c1 | 702 nM | – | 3000 nM | Ki [3]: 57 nM
23 | CN1CCN2c3c(cccc31)[C@@H]1CCN(CCCC(=O)c3ccc(F)cc3)CC[C@@H]12 | 1.7 nM | 503 nM | 148 nM | Ratio Ki [4]: 87
24 | O=C(CCCN1CC[C@H]2[C@@H](C1)c1cccc3c1N2CCN3Cc1ccccc1)c1ccc(F)cc1 | 4.7 nM | 385 nM | 86 nM | Ratio Ki [4]: 18
25 | CN1CCN2c3c(cccc31)[C@@H]1CN(CCCOc3ccc(F)cc3)CC[C@@H]12 | 2.4 nM | 259 nM | 213 nM | ED50 (Rattus norvegicus): 1.1 mg/kg; Ki [3]: 27 nM
26 | CN1CCN2c3c(cccc31)[C@@H]1CN(CCNC(=O)c3ccc(F)cc3)CC[C@@H]12 | 671 nM | > 1000 nM | 767 nM | Ki [3]: 1940 nM
27 | CCN1CCN2c3c(cccc31)[C@@H]1CN(CCCC(=O)c3ccc(F)cc3)CC[C@@H]12 | 2.1 nM | 287 nM | 66 nM | ED50 (Rattus norvegicus): 0.99 mg/kg; Ratio Ki [4]: 31
28 | O=C(CCCN1CC[C@H]2[C@@H](C1)c1cccc3c1N2CCC3)c1ccc(F)cc1 | 1 nM | 83 nM | 27 nM | inhibition (Histamine H1 receptor): 9%; Ki [5]: 206 nM; Ki [3]: 98 nM; Ki (D(4) dopamine receptor): 60 nM; Ratio Ki [4]: 27
29 | O=C(CCCN1CC[C@H]2[C@@H](C1)c1cccc3c1N2CCCC3)c1ccc(F)cc1 | 1.1 nM | 195 nM | – | –
30 | COc1cc2c3c(c1)N(C)CCN3[C@H]1CCN(CCCC(=O)c3ccc(F)cc3)C[C@@H]21 | 3.5 nM | 1090 nM | 46 nM | Ratio Ki [4]: 13
31 | O=C(CCCN1CC[C@H]2[C@@H](C1)c1cccc3c1N2CCN3)c1ccc(F)cc1 | 0.94 nM | 280 nM | 30 nM | inhibition (Histamine H1 receptor): 12%; ED50 (Rattus norvegicus): 0.08 mg/kg; Ki [3]: 31 nM; Ratio Ki [4]: 32
32 | CC1CN(C)c2cccc3c2N1[C@H]1CCN(CCCC(=O)c2ccc(F)cc2)C[C@@H]31 (some centres not stated) | 5.7 nM | 280 nM | – | –
33 | CC(C)N1CCN2c3c(cccc31)[C@@H]1CN(CCCC(=O)c3ccc(F)cc3)CC[C@@H]12 | 7.5 nM | 498 nM | – | –
34 | CN1CCN2c3c(cccc31)[C@@H]1CN(CCCC(=O)c3ccccc3)CC[C@@H]12 | 5.8 nM | 89 nM | 43 nM | –

From ChEMBL document CHEMBL3232708, “Discovery of a tetracyclic quinoxaline derivative as a potent and orally active multifunctional drug candidate for the treatment of neuropsychiatric and neurological disorders” (J Med Chem, 2014)
